Measured values as given in patent publication US6518243B1, “Desleucyl glycopeptide antibiotics and methods of making same” (Trustees of Princeton University, priority 1999, dated 2003).

How the values were obtained:
Experiment in all cases: Zone of inhibition screen, 96 well agar array format
Assay type in all cases: cell-based
Parameters in all cases: scale not given here
[1] = system: E. faecalis (CL 4877)
In short: (§1)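 Each compound was tested for antibacterial activity against a shared bacterial panel, with screening carried out on agar in a 96-well array.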

[2] = system: S. aureus (ATCC 29213)
In short: as §1

[3] = system: S. epidermidis (ATCC 12228)
In short: as §1

[4] = zone of inhibition relative to 1 mg/ml stock solution of p-chlorobiphenylvancomycin
[5] = zone of inhibition relative to 1 mg/ml p-chlorobiphenylvancomycin

Row | SMILES | zone score, E. faecalis CL 4877 [1, 4] | zone score, S. aureus ATCC 29213 [2, 4] | zone score, S. epidermidis ATCC 12228 [3, 4] | zone score, E. faecalis CL 4877 [1, 5] | zone score, S. aureus ATCC 29213 [2, 5] | zone score, S. epidermidis ATCC 12228 [3, 5]
1 | CC1OC(OC2C(Oc3c4cc5cc3Oc3ccc(cc3Cl)C(O)C3NC(=O)C(NC(=O)C5NC(=O)C(CC(N)=O)NC(=O)C(NC(=O)CCC(N)=O)C(O)c5ccc(c(Cl)c5)O4)c4ccc(O)c(c4)-c4c(O)cc(O)cc4C(C(=O)O)NC3=O)OC(CO)C(O)C2O)CC(C)(NCc2ccc(-c3ccc(Cl)cc3)cc2)C1O (stereo not shown) [Compound 202] | 2 | 2 | 2 | – | – | –
2 | CC1OC(OC2C(Oc3c4cc5cc3Oc3ccc(cc3Cl)C(O)C3NC(=O)C(NC(=O)C5NC(=O)C(CC(N)=O)NC(=O)C(NC(=O)C=Cc5c[nH]cn5)C(O)c5ccc(c(Cl)c5)O4)c4ccc(O)c(c4)-c4c(O)cc(O)cc4C(C(=O)O)NC3=O)OC(CO)C(O)C2O)CC(C)(NCc2ccc(-c3ccc(Cl)cc3)cc2)C1O (stereo not shown) [Compound 321] | – | – | – | 2 | 2 | 2
3 | CC1OC(OC2C(Oc3c4cc5cc3Oc3ccc(cc3Cl)C(O)C3NC(=O)C(NC(=O)C5NC(=O)C(CC(N)=O)NC(=O)C(NC(=O)C=NNC(N)=O)C(O)c5ccc(c(Cl)c5)O4)c4ccc(O)c(c4)-c4c(O)cc(O)cc4C(C(=O)O)NC3=O)OC(CO)C(O)C2O)CC(C)(NCc2ccc(-c3ccc(Cl)cc3)cc2)C1O (stereo not shown) [Compound 289] | – | – | – | – | 2 | 2
4 | CC1OC(OC2C(Oc3c4cc5cc3Oc3ccc(cc3Cl)C(O)C3NC(=O)C(NC(=O)C5NC(=O)C(CC(N)=O)NC(=O)C(NC(=O)CCCN)C(O)c5ccc(c(Cl)c5)O4)c4ccc(O)c(c4)-c4c(O)cc(O)cc4C(C(=O)O)NC3=O)OC(CO)C(O)C2O)CC(C)(NCc2ccc(-c3ccc(Cl)cc3)cc2)C1O (stereo not shown) [Compound 65] | 2 | 2 | 2 | – | – | –
5 | CSCCC(NC(C)=O)C(=O)NC1C(=O)NC(CC(N)=O)C(=O)NC2C(=O)NC3C(=O)NC(C(=O)NC(C(=O)O)c4cc(O)cc(O)c4-c4cc3ccc4O)C(O)c3ccc(c(Cl)c3)Oc3cc2cc(c3OC2OC(CO)C(O)C(O)C2OC2CC(C)(NCc3ccc(-c4ccc(Cl)cc4)cc3)C(O)C(C)O2)Oc2ccc(cc2Cl)C1O (mixture of isomers) [Compound 175] | – | 2 | 2 | – | – | –
6 | CC1OC(OC2C(Oc3c4cc5cc3Oc3ccc(cc3Cl)C(O)C3NC(=O)C(NC(=O)C5NC(=O)C(CC(N)=O)NC(=O)C(NC(=O)CC(N)C(N)=O)C(O)c5ccc(c(Cl)c5)O4)c4ccc(O)c(c4)-c4c(O)cc(O)cc4C(C(=O)O)NC3=O)OC(CO)C(O)C2O)CC(C)(NCc2ccc(-c3ccc(Cl)cc3)cc2)C1O (stereo not shown) [Compound 74] | – | 2 | 2 | – | – | –
7 | C=CCOC(=O)NCCC(N)C(=O)NC1C(=O)NC(CC(N)=O)C(=O)NC2C(=O)NC3C(=O)NC(C(=O)NC(C(=O)O)c4cc(O)cc(O)c4-c4cc3ccc4O)C(O)c3ccc(c(Cl)c3)Oc3cc2cc(c3OC2OC(CO)C(O)C(O)C2OC2CC(C)(NCc3ccc(-c4ccc(Cl)cc4)cc3)C(O)C(C)O2)Oc2ccc(cc2Cl)C1O (stereo not shown) [Compound 93] | – | 2 | 2 | – | – | –
8 | CC1OC(OC2C(Oc3c4cc5cc3Oc3ccc(cc3Cl)C(O)C3NC(=O)C(NC(=O)C5NC(=O)C(CC(N)=O)NC(=O)C(NC(=O)C(CCC(N)=O)NC(=O)CNC(=O)OCc5ccccc5)C(O)c5ccc(c(Cl)c5)O4)c4ccc(O)c(c4)-c4c(O)cc(O)cc4C(C(=O)O)NC3=O)OC(CO)C(O)C2O)CC(C)(NCc2ccc(-c3ccc(Cl)cc3)cc2)C1O (stereo not shown) [Compound 212] | – | – | – | 2 | 2 | 2
9 | CCOCCC(=O)N[C@H]1C(=O)N[C@@H](CC(N)=O)C(=O)N[C@H]2C(=O)N[C@H]3C(=O)N[C@H](C(=O)N[C@@H](C(=O)O)c4cc(O)cc(O)c4-c4cc3ccc4O)[C@H](O)c3ccc(c(Cl)c3)Oc3cc2cc(c3O[C@@H]2O[C@H](CO)[C@@H](O)[C@H](O)[C@H]2O[C@@H]2C[C@@](C)(NCc3ccc(-c4ccc(Cl)cc4)cc3)[C@@H](O)[C@@H](C)O2)Oc2ccc(cc2Cl)[C@H]1O [Compound 258] | – | – | – | 2 | 2 | 2
10 | CC(=O)OC(CC(=O)NC1C(=O)NC(CC(N)=O)C(=O)NC2C(=O)NC3C(=O)NC(C(=O)NC(C(=O)O)c4cc(O)cc(O)c4-c4cc3ccc4O)C(O)c3ccc(c(Cl)c3)Oc3cc2cc(c3OC2OC(CO)C(O)C(O)C2OC2CC(C)(NCc3ccc(-c4ccc(Cl)cc4)cc3)C(O)C(C)O2)Oc2ccc(cc2Cl)C1O)C[N+](C)(C)C (mixture of isomers) [Compound 118] | – | 2 | 2 | – | – | –
11 | CC1OC(OC2C(Oc3c4cc5cc3Oc3ccc(cc3Cl)C(O)C3NC(=O)C(NC(=O)C5NC(=O)C(CC(N)=O)NC(=O)C(NC(=O)C=Cc5ccco5)C(O)c5ccc(c(Cl)c5)O4)c4ccc(O)c(c4)-c4c(O)cc(O)cc4C(C(=O)O)NC3=O)OC(CO)C(O)C2O)CC(C)(NCc2ccc(-c3ccc(Cl)cc3)cc2)C1O (stereo not shown) [Compound 244] | – | – | – | – | 2 | 2
12 | CC1OC(OC2C(Oc3c4cc5cc3Oc3ccc(cc3Cl)C(O)C3NC(=O)C(NC(=O)C5NC(=O)C(CC(N)=O)NC(=O)C(NC(=O)c5nccnc5C(N)=O)C(O)c5ccc(c(Cl)c5)O4)c4ccc(O)c(c4)-c4c(O)cc(O)cc4C(C(=O)O)NC3=O)OC(CO)C(O)C2O)CC(C)(NCc2ccc(-c3ccc(Cl)cc3)cc2)C1O (stereo not shown) [Compound 283] | – | – | – | – | 2 | 2
13 | CCCCCCCCCCCCCC(=O)NCC(=O)N[C@H]1C(=O)N[C@@H](CC(N)=O)C(=O)N[C@H]2C(=O)N[C@H]3C(=O)N[C@H](C(=O)N[C@@H](C(=O)O)c4cc(O)cc(O)c4-c4cc3ccc4O)[C@H](O)c3ccc(c(Cl)c3)Oc3cc2cc(c3O[C@@H]2O[C@H](CO)[C@@H](O)[C@H](O)[C@H]2O[C@@H]2C[C@@](C)(NCc3ccc(-c4ccc(Cl)cc4)cc3)[C@@H](O)[C@@H](C)O2)Oc2ccc(cc2Cl)[C@H]1O [Compound 22] | – | 2 | 2 | – | – | –
14 | CC1OC(OC2C(Oc3c4cc5cc3Oc3ccc(cc3Cl)C(O)C3NC(=O)C(NC(=O)C5NC(=O)C(CC(N)=O)NC(=O)C(NC(=O)C5CCCO5)C(O)c5ccc(c(Cl)c5)O4)c4ccc(O)c(c4)-c4c(O)cc(O)cc4C(C(=O)O)NC3=O)OC(CO)C(O)C2O)CC(C)(NCc2ccc(-c3ccc(Cl)cc3)cc2)C1O (stereo not shown) [Compound 316] | – | – | – | – | 2 | 2
15 | CC1OC(OC2C(Oc3c4cc5cc3Oc3ccc(cc3Cl)C(O)C3NC(=O)C(NC(=O)C5NC(=O)C(CC(N)=O)NC(=O)C(NC(=O)c5ccccc5F)C(O)c5ccc(c(Cl)c5)O4)c4ccc(O)c(c4)-c4c(O)cc(O)cc4C(C(=O)O)NC3=O)OC(CO)C(O)C2O)CC(C)(NCc2ccc(-c3ccc(Cl)cc3)cc2)C1O (stereo not shown) [Compound 238] | – | – | – | – | 2 | 2
16 | CC(=O)OCC(=O)NC1C(=O)NC(CC(N)=O)C(=O)NC2C(=O)NC3C(=O)NC(C(=O)NC(C(=O)O)c4cc(O)cc(O)c4-c4cc3ccc4O)C(O)c3ccc(c(Cl)c3)Oc3cc2cc(c3OC2OC(CO)C(O)C(O)C2OC2CC(C)(NCc3ccc(-c4ccc(Cl)cc4)cc3)C(O)C(C)O2)Oc2ccc(cc2Cl)C1O (stereo not shown) [Compound 117] | – | 2 | 2 | – | – | –
17 | CC1OC(OC2C(Oc3c4cc5cc3Oc3ccc(cc3Cl)C(O)C3NC(=O)C(NC(=O)C5NC(=O)C(CC(N)=O)NC(=O)C(NC(=O)c5ccc(O)cc5)C(O)c5ccc(c(Cl)c5)O4)c4ccc(O)c(c4)-c4c(O)cc(O)cc4C(C(=O)O)NC3=O)OC(CO)C(O)C2O)CC(C)(NCc2ccc(-c3ccc(Cl)cc3)cc2)C1O (stereo not shown) [Compound 271] | – | – | – | – | 2 | 2
18 | CC1OC(OC2C(Oc3c4cc5cc3Oc3ccc(cc3Cl)C(O)C3NC(=O)C(NC(=O)C5NC(=O)C(CC(N)=O)NC(=O)C(NC(=O)c5cc(=O)[nH]c(=O)[nH]5)C(O)c5ccc(c(Cl)c5)O4)c4ccc(O)c(c4)-c4c(O)cc(O)cc4C(C(=O)O)NC3=O)OC(CO)C(O)C2O)CC(C)(NCc2ccc(-c3ccc(Cl)cc3)cc2)C1O (stereo not shown) [Compound 198] | – | 2 | 2 | – | – | –
19 | CC1OC(OC2C(Oc3c4cc5cc3Oc3ccc(cc3Cl)C(O)C3NC(=O)C(NC(=O)C5NC(=O)C(CC(N)=O)NC(=O)C(NC(=O)c5ccco5)C(O)c5ccc(c(Cl)c5)O4)c4ccc(O)c(c4)-c4c(O)cc(O)cc4C(C(=O)O)NC3=O)OC(CO)C(O)C2O)CC(C)(NCc2ccc(-c3ccc(Cl)cc3)cc2)C1O (stereo not shown) [Compound 240] | – | – | – | – | 2 | 2
20 | CC1OC(OC2C(Oc3c4cc5cc3Oc3ccc(cc3Cl)C(O)C3NC(=O)C(NC(=O)C5NC(=O)C(CC(N)=O)NC(=O)C(NC(=O)C5CCC(=O)O5)C(O)c5ccc(c(Cl)c5)O4)c4ccc(O)c(c4)-c4c(O)cc(O)cc4C(C(=O)O)NC3=O)OC(CO)C(O)C2O)CC(C)(NCc2ccc(-c3ccc(Cl)cc3)cc2)C1O (stereo not shown) [Compound 227] | – | – | – | – | 2 | 2
21 | CSCCC(N)C(O)CC(=O)NC1C(=O)NC(CC(N)=O)C(=O)NC2C(=O)NC3C(=O)NC(C(=O)NC(C(=O)O)c4cc(O)cc(O)c4-c4cc3ccc4O)C(O)c3ccc(c(Cl)c3)Oc3cc2cc(c3OC2OC(CO)C(O)C(O)C2OC2CC(C)(NCc3ccc(-c4ccc(Cl)cc4)cc3)C(O)C(C)O2)Oc2ccc(cc2Cl)C1O (stereo not shown) [Compound 31] | – | 2 | 2 | – | – | –
22 | CC1OC(OC2C(Oc3c4cc5cc3Oc3ccc(cc3Cl)C(O)C3NC(=O)C(NC(=O)C5NC(=O)C(CC(N)=O)NC(=O)C(NC(=O)C(N)CCCCNC(N)=O)C(O)c5ccc(c(Cl)c5)O4)c4ccc(O)c(c4)-c4c(O)cc(O)cc4C(C(=O)O)NC3=O)OC(CO)C(O)C2O)CC(C)(NCc2ccc(-c3ccc(Cl)cc3)cc2)C1O (stereo not shown) [Compound 78] | – | 2 | 2 | – | – | –
